The results in this text go back to US8466088B2, “Herbicidal compositions containing benzoylpyrazole compounds” (Ishihara Sangyo Kaisha, Ltd., priority 2007, dated 2013).

Like-named read-outs stand apart in the source and are kept apart here.

One test has as its system crabgrass. As to the kind of experiment: Example 1: pot test, foliar treatment, visually observed growth inhibition of crabgrass. The note with it: Digitaria sanguinalis, foliar, read-out: Growth inhibition rate (%) of crabgrass, Measured value. The class given is in vivo.
The subject of a further test is velvetleaf. Kind of test: Example 1: pot test, foliar treatment, visually observed growth inhibition of velvetleaf. The class given is in vivo, Abutilon theophrasti MEDIC. The note with it: Abutilon theophrasti, foliar, read-out: Growth inhibition rate (%) of velvetleaf, Measured value.
The subject of the next test is various plants. Kind of test: Example 1: pot test, foliar treatment, visually observed growth inhibition of other sown plants (Tables 5-1 to 5-137). The class given is in vivo. The note with it: foliar. The text has this:
When the herbicidal activity in a case where two active ingredients are combined, is larger than the simple sum of the respective herbicidal activities of the two active ingredients (the expected activity), it is called a synergistic effect. The activity expected by the combination of two active ingredients can be calculated as follows (Colby S. R., “Weed”, vol. 15, p. 20-22, 1967). E=α+β−(α×β+100) where
α: growth inhibition rate when treated with x (g/ha) of herbicide X,
β: growth inhibition rate when treated with y (g/ha) of herbicide Y,
E: growth inhibition rate expected when treated with x (g/ha) of herbicide X and y (g/ha) of herbicide Y.
That is, when the actual growth inhibition rate (measured value) is larger than the growth inhibition rate by the above calculation (calculated value), the activity by the combination can be regarded as showing a synergistic effect.
Upland field soil was put into a 1/1,000,000 hectare pot, and seeds of various plants were sown. When the respective plants reached predetermined leaf stage, herbicidal compositions in predetermined amounts were diluted with water in an amount corresponding to 300 L/ha and applied for foliar treatment by a small sprayer.
On the 14th to 28th day after application, the state of growth of the respective plants was visually observed to determine the growth inhibition rate (measured value) in accordance with the following evaluation standard. Further, in accordance with the above Colby's formula, the growth inhibition rate (calculated value) was calculated. In Tables, with respect to the compound A, Compound Nos. in Table 1 or 3 are described, and with respect to other herbicidal compounds, common names are described.

[1] abbreviates: 3.2 to 4.1 leaf stage, 21st day after application.
The mark [2] stands for this setting: 4.0 to 4.4 leaf stage, 22nd day after application.

On to `CCOCN(C(=O)CCl)c1c(C)cccc1CC` [Acetochlor], for which the inhibition at 400 g/ha in the test on crabgrass (3.3 to 4.2 leaf stage, 24th day after application, 400 g/ha) came to 0%. Moreover, the inhibition at 600 g/ha with crabgrass (3.3 to 4.2 leaf stage, 24th day after application, 600 g/ha) is 0%. Moreover, in the test with crabgrass (3.3 to 4.2 leaf stage, 24th day after application, 800 g/ha), the inhibition at 800 g/ha was determined as 0%. For the same molecule, the inhibition at 1600 g/ha in the test with crabgrass (3.3 to 4.2 leaf stage, 24th day after application, 1600 g/ha) is 0%. For the same molecule, the inhibition at 150 g/ha with velvetleaf (2.0 to 2.5 leaf stage, 21st day after application) amounted to 0%; in the test with velvetleaf (3.3 to 4.2 leaf stage, 22nd day after application) it was 0%; in the test on various plants (Ipomoea, ivyleaf morningglory 1.5 to 2.1 leaf stage, 14th day after application, 150 g/ha, read-out: Growth inhibition rate (%) of ivyleaf morningglory, Measured value) it was 0%. Moreover, the inhibition at 300 g/ha in the test with velvetleaf (3.3 to 4.2 leaf stage, 22nd day after application, 300 g/ha) came to 0%. For the same molecule, the inhibition at 100 g/ha in the test with various plants (Ipomoea, ivyleaf morningglory 1.5 to 2.1 leaf stage, 14th day after application, 100 g/ha, read-out: Growth inhibition rate (%) of ivyleaf morningglory, Measured value) turned out to be 0%. Further, in the test with various plants (Ipomoea, ivyleaf morningglory 1.5 to 2.1 leaf stage, 14th day after application, 200 g/ha, read-out: Growth inhibition rate (%) of ivyleaf morningglory, Measured value), the inhibition at 200 g/ha is 0%.
Take `CCNc1nc(Cl)nc(NC(C)C)n1` [Atrazine, atrazine, reference compound]: the inhibition at 175 g/ha was found to be 0% with crabgrass (2.7 to 3.6 leaf stage, 21st day after application, 175 g/ha); 3% in the test with velvetleaf (setting [1]); 20% in the test on velvetleaf (setting [2]). For the same molecule, the inhibition at 375 g/ha amounted to 20% in the test with crabgrass (2.7 to 3.6 leaf stage, 21st day after application); 0% in the test on crabgrass (3.1 to 4.0 leaf stage, 22nd day after application); 5% in the test on velvetleaf (setting [1]); 25% with velvetleaf (setting [2]). For the same molecule, the inhibition at 125 g/ha amounted to 0% with crabgrass (3.2 to 4.3 leaf stage, on the 22nd day after application, active ingredient amount 125 g/ha); 10% in the test on crabgrass (4.0 to 4.5 leaf stage, 21st day after application, 125 g/ha); 0% in the test with crabgrass (4.3 to 4.5 leaf stage, 20th day after application, 125 g/ha); 10% with velvetleaf (2.4 to 3.2 leaf stage, on the 22nd day after application, active ingredient amount 125 g/ha); 0% with velvetleaf (3.0 to 3.5 leaf stage, 20th day after application, 125 g/ha); 10% with velvetleaf (3.0 to 3.5 leaf stage, 21st day after application, 125 g/ha). The inhibition at 250 g/ha in the test with crabgrass (3.2 to 4.3 leaf stage, on the 22nd day after application, active ingredient amount 250 g/ha) was 0%; in the test on crabgrass (4.0 to 4.5 leaf stage, 21st day after application, 250 g/ha) it was 10%; in the test on crabgrass (4.3 to 4.5 leaf stage, 20th day after application, 250 g/ha), 0%; in the test with velvetleaf (3.0 to 3.5 leaf stage, 21st day after application, 250 g/ha), 20%. Also, the inhibition at 150 g/ha worked out at 0% with crabgrass (3.8 to 4.4 leaf stage, 21st day after application, 150 g/ha); 0% with velvetleaf (3.0 to 3.8 leaf stage, 15th day after application); 60% in the test with velvetleaf (3.2 to 5.0 leaf stage, 21st day after application); 0% in the test with velvetleaf (3.5 to 4.3 leaf stage, 21st day after application). Moreover, the inhibition at 1000 g/ha with velvetleaf (2.8 to 3.6 leaf stage, 24th day after application, 1000 g/ha) was determined as 15%. Further, the inhibition at 1500 g/ha in the test on velvetleaf (2.8 to 3.6 leaf stage, 24th day after application, 1500 g/ha) worked out at 15%. The inhibition at 2000 g/ha in the test on velvetleaf (2.8 to 3.6 leaf stage, 24th day after application, 2000 g/ha) was found to be 25%. Moreover, the inhibition at 31 g/ha in the test on various plants (Ipomoea, ivyleaf morningglory 1.5 to 2.1 leaf stage, 23rd day after application, 31 g/ha, read-out: Growth inhibition rate (%) of ivyleaf morningglory, Measured value) stood at 0%. Moreover, in the test with various plants (Ipomoea, ivyleaf morningglory 1.5 to 2.1 leaf stage, 23rd day after application, 90 g/ha, read-out: Growth inhibition rate (%) of ivyleaf morningglory, Measured value), the inhibition at 90 g/ha turned out to be 0%. The inhibition at 180 g/ha with various plants (Ipomoea, ivyleaf morningglory 1.5 to 2.1 leaf stage, 23rd day after application, 180 g/ha, read-out: Growth inhibition rate (%) of ivyleaf morningglory, Measured value) stood at 0%. In addition, in the test on various plants (Ipomoea, ivyleaf morningglory 1.5 to 2.1 leaf stage, 23rd day after application, 500 g/ha, read-out: Growth inhibition rate (%) of ivyleaf morningglory, Measured value), the inhibition at 500 g/ha worked out at 83%.
On to `COc1cc(OC)nc(NC(=O)NS(=O)(=O)c2ncccc2C(=O)N(C)C)n1` [Nicosulfuron], for which the inhibition at 30 g/ha stood at 92% in the test on crabgrass (3.5 to 4.2 leaf stage, 20th day after application, 30 g/ha); 20% with velvetleaf (2.5 to 3.3 leaf stage, 21st day after application, 30 g/ha); 10% in the test on various plants (prickly sida 2.1 to 3.1 leaf stage, 20th day after application, 30 g/ha, read-out: Growth inhibition rate (%) of prickly sida, Measured value). Moreover, the inhibition at 15 g/ha was 45% with crabgrass (3.8 to 4.4 leaf stage, 21st day after application); 40% with crabgrass (3.8 to 5.2 leaf stage, 21st day after application); 88% in the test with crabgrass (4.3 to 4.5 leaf stage, 20th day after application); 45% in the test with velvetleaf (3.0 to 3.5 leaf stage, 21st day after application); 10% in the test on velvetleaf (3.0 to 3.8 leaf stage, 28th day after application). For the same molecule, the inhibition at 10 g/ha in the test on velvetleaf (2.5 to 3.3 leaf stage, 21st day after application, 10 g/ha) came out at 10%. Further, the inhibition at 20 g/ha in the test on velvetleaf (2.5 to 3.3 leaf stage, 21st day after application, 20 g/ha) was determined as 20%; in the test on various plants (prickly sida 2.1 to 3.1 leaf stage, 20th day after application, 20 g/ha, read-out: Growth inhibition rate (%) of prickly sida, Measured value) it was 0%. Moreover, the inhibition at 80 g/ha in the test on velvetleaf (2.8 to 3.6 leaf stage, 24th day after application, 80 g/ha) came out at 60%. Besides, in the test with velvetleaf (3.3 to 4.3 leaf stage, 20th day after application, 50 g/ha), the inhibition at 50 g/ha turned out to be 50%. The inhibition at 7 g/ha with various plants (prickly sida 2.1 to 3.1 leaf stage, 20th day after application, 7 g/ha, read-out: Growth inhibition rate (%) of prickly sida, Measured value) is 0%. In the test on various plants (prickly sida 2.1 to 3.1 leaf stage, 20th day after application, 60 g/ha, read-out: Growth inhibition rate (%) of prickly sida, Measured value), the inhibition at 60 g/ha turned out to be 55%.
